Measurements from patent publication US20230085307A1, “PYRIDAZINONE COMPOUND AND HERBICIDE” (NISSAN CHEMICAL CORPORATION, priority 2019, published 2023).

Legend:
Italian ryegrass [1] = assay: Test Example 4: herbicidal effect by soil treatment (Table 19, symbol K); format: in vivo, Italian ryegrass (Lolium multiflorum); conditions: amount of applied herbicide 320 g/ha
How it was run: (§1)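 Scoring uses the grading scale of an earlier test, three weeks post-application. Treatment consists of spraying a diluted emulsion formulation across the surface of sterilized diluvial soil in which seeds are buried near 1.5 cm deep; boxes are kept in a greenhouse between 25° C. and 30° C.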

false cleavers [2] = assay: Test Example 4: herbicidal effect by soil treatment (Table 19, symbol Q); format: in vivo, false cleavers (Galium spurium); conditions: amount of applied herbicide 320 g/ha
How it was run: as §1

late watergrass [3] = assay: Test Example 1: herbicidal activity, application before weed generation under submerged conditions (Table 16, symbol A); format: in vivo, late watergrass (Echinochloa oryzicola); conditions: amount of applied herbicide 320 g/ha
How it was run: (§2)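 Alluvial soil was flooded to 4 cm depth, weed seeds were sown mixed and 2.5-leaf rice seedlings were transplanted. On sowing day, the compound's emulsion, diluted in water to a set dose, was applied to the water surface. Plants grew at 25–30 °C and were scored 0–5 after three weeks.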

Japanese bulrush [4] = assay: Test Example 2: herbicidal activity, application during weed generation under submerged conditions (Table 17, symbol B); format: in vivo, Japanese bulrush (Schoenoplectus juncoides); conditions: AAH 320 g/ha; application during weed generation, submerged conditions
How it was run: (§3)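 Alluvial soil in Wagner pots was flooded to 4 cm depth and sown with the three weeds together; pots were kept in a greenhouse at 25° C. to 30° C. At the one to two leaf stage, an emulsion formulation diluted in water to a set rate went onto the water surface; scored three weeks later.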

velvetleaf [5] = assay: Test Example 5: herbicidal effect by foliage application, plastic box (Table 20, symbol M); format: in vivo, velvetleaf (Abutilon theophrasti); conditions: foliage application, 320 g/ha, three weeks after application
How it was run: (§4)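 Post-emergence foliar test in sterilized diluvial soil. Compound applied as water-diluted emulsion at a predetermined rate to 14-day-old plants; evaluation at three weeks.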

blackgrass [6] = assay: Test Example 4: herbicidal effect by soil treatment (Table 19, symbol J); format: in vivo, blackgrass (Alopecurus myosuroides); conditions: amount of applied herbicide 320 g/ha
How it was run: as §1

green foxtail [7] = assay: Test Example 4: herbicidal effect by soil treatment (Table 19, symbol G); format: in vivo, green foxtail (Setaria viridis); conditions: amount of applied herbicide 320 g/ha
How it was run: as §1

barnyard grass [8] = assay: Test Example 5: herbicidal effect by foliage application, plastic box (Table 20, symbol H); format: in vivo, barnyard grass (Echinochloa crus-galli); conditions: foliage application, 320 g/ha, three weeks after application
How it was run: as §4

green foxtail [9] = assay: Test Example 5: herbicidal effect by foliage application, plastic box (Table 20, symbol G); format: in vivo, green foxtail (Setaria viridis); conditions: foliage application, 320 g/ha, three weeks after application
How it was run: as §4

blackgrass [10] = assay: Test Example 5: herbicidal effect by foliage application, plastic box (Table 20, symbol J); format: in vivo, blackgrass (Alopecurus myosuroides); conditions: foliage application, 320 g/ha, three weeks after application
How it was run: as §4

oval-leafed pondweed [11] = assay: Test Example 1: herbicidal activity, application before weed generation under submerged conditions (Table 16, symbol C); format: in vivo, oval-leafed pondweed (Monochoria vaginalis); conditions: amount of applied herbicide 320 g/ha
How it was run: as §2

redroot pigweed [12] = assay: Test Example 5: herbicidal effect by foliage application, plastic box (Table 20, symbol N); format: in vivo, redroot pigweed (Amaranthus retroflexus); conditions: foliage application, 320 g/ha, three weeks after application
How it was run: as §4

barnyard grass [13] = assay: Test Example 4: herbicidal effect by soil treatment (Table 19, symbol H); format: in vivo, barnyard grass (Echinochloa crus-galli); conditions: amount of applied herbicide 320 g/ha
How it was run: as §1

southern crabgrass [14] = assay: Test Example 5: herbicidal effect by foliage application, plastic box (Table 20, symbol F); format: in vivo, southern crabgrass (Digitaria ciliaris); conditions: foliage application, 320 g/ha, three weeks after application
How it was run: as §4

wild oat [15] = assay: Test Example 5: herbicidal effect by foliage application, plastic box (Table 20, symbol I); format: in vivo, wild oat (Avena fatua); conditions: foliage application, 320 g/ha, three weeks after application
How it was run: as §4

windgrass [16] = assay: Test Example 4: herbicidal effect by soil treatment (Table 19, symbol L); format: in vivo, windgrass (Apera spica-venti); conditions: amount of applied herbicide 320 g/ha
How it was run: as §1

false cleavers [17] = assay: Test Example 5: herbicidal effect by foliage application, plastic box (Table 20, symbol Q); format: in vivo, false cleavers (Galium spurium); conditions: foliage application, 320 g/ha, three weeks after application
How it was run: as §4

redroot pigweed [18] = assay: Test Example 4: herbicidal effect by soil treatment (Table 19, symbol N); format: in vivo, redroot pigweed (Amaranthus retroflexus); conditions: amount of applied herbicide 320 g/ha
How it was run: as §1

velvetleaf [19] = assay: Test Example 4: herbicidal effect by soil treatment (Table 19, symbol M); format: in vivo, velvetleaf (Abutilon theophrasti); conditions: amount of applied herbicide 320 g/ha
How it was run: as §1

persian speedwell [20] = assay: Test Example 5: herbicidal effect by foliage application, plastic box (Table 20, symbol R); format: in vivo, Persian speedwell (Veronica persica); conditions: foliage application, 320 g/ha, three weeks after application
How it was run: as §4

windgrass [21] = assay: Test Example 5: herbicidal effect by foliage application, plastic box (Table 20, symbol L); format: in vivo, windgrass (Apera spica-venti); conditions: foliage application, 320 g/ha, three weeks after application
How it was run: as §4

chickweed [22] = assay: Test Example 4: herbicidal effect by soil treatment (Table 19, symbol P); format: in vivo, common chickweed (Stellaria media); conditions: amount of applied herbicide 320 g/ha
How it was run: as §1

lambsquarters [23] = assay: Test Example 4: herbicidal effect by soil treatment (Table 19, symbol O); format: in vivo, lambsquarters (Chenopodium album); conditions: amount of applied herbicide 320 g/ha
How it was run: as §1

oval-leafed pondweed [24] = assay: Test Example 2: herbicidal activity, application during weed generation under submerged conditions (Table 17, symbol C); format: in vivo, oval-leafed pondweed (Monochoria vaginalis); conditions: AAH 320 g/ha; application during weed generation, submerged conditions
How it was run: as §3

southern crabgrass [25] = assay: Test Example 4: herbicidal effect by soil treatment (Table 19, symbol F); format: in vivo, southern crabgrass (Digitaria ciliaris); conditions: amount of applied herbicide 320 g/ha
How it was run: as §1

late watergrass [26] = assay: Test Example 2: herbicidal activity, application during weed generation under submerged conditions (Table 17, symbol A); format: in vivo, late watergrass (Echinochloa oryzicola); conditions: AAH 320 g/ha; application during weed generation, submerged conditions
How it was run: as §3

Japanese bulrush [27] = assay: Test Example 1: herbicidal activity, application before weed generation under submerged conditions (Table 16, symbol B); format: in vivo, Japanese bulrush (Schoenoplectus juncoides); conditions: amount of applied herbicide 320 g/ha
How it was run: as §2

Italian ryegrass [28] = assay: Test Example 5: herbicidal effect by foliage application, plastic box (Table 20, symbol K); format: in vivo, Italian ryegrass (Lolium multiflorum); conditions: foliage application, 320 g/ha, three weeks after application
How it was run: as §4

lambsquarters [29] = assay: Test Example 5: herbicidal effect by foliage application, plastic box (Table 20, symbol O); format: in vivo, lambsquarters (Chenopodium album); conditions: foliage application, 320 g/ha, three weeks after application
How it was run: as §4

persian speedwell [30] = assay: Test Example 4: herbicidal effect by soil treatment (Table 19, symbol R); format: in vivo, Persian speedwell (Veronica persica); conditions: amount of applied herbicide 320 g/ha
How it was run: as §1

chickweed [31] = assay: Test Example 5: herbicidal effect by foliage application, plastic box (Table 20, symbol P); format: in vivo, common chickweed (Stellaria media); conditions: foliage application, 320 g/ha, three weeks after application
How it was run: as §4

wild oat [32] = assay: Test Example 4: herbicidal effect by soil treatment (Table 19, symbol I); format: in vivo, wild oat (Avena fatua); conditions: amount of applied herbicide 320 g/ha
How it was run: as §1

For `CCCC(=O)Oc1c(C)nn(C)c(=O)c1-c1c(-c2ccc(F)cc2)sc2cc(OC)ccc12` [3-064], the “K: Italian ryegrass, herbicidal effect grade” value (Italian ryegrass [1]) was 0 (Herbicidal rate of 5% or less (almost no effect)), the “Q: false cleavers, herbicidal effect grade” value (false cleavers [2]) was 0 (Herbicidal rate of 5% or less (almost no effect)) and the “Herbicidal effect, A: late watergrass” value (late watergrass [3]) was 0 (Herbicidal rate of 5% or less (almost no effect)). The “herbicidal effect rating, B: Japanese bulrush” value (Japanese bulrush [4]) was 1 (Herbicidal rate of 5% or more and less than 20%), the “M: velvetleaf, herbicidal effect grade” value (velvetleaf [5]) was 1 (Herbicidal rate of 5% or more and less than 20%) and the “J: blackgrass, herbicidal effect grade” value (blackgrass [6]) was 0 (Herbicidal rate of 5% or less (almost no effect)). The “G: green foxtail, herbicidal effect grade” value (green foxtail [7]) was 0 (Herbicidal rate of 5% or less (almost no effect)), the “H: barnyard grass, herbicidal effect grade” value (barnyard grass [8]) was 0 (Herbicidal rate of 5% or less (almost no effect)) and the “G: green foxtail, herbicidal effect grade” value (green foxtail [9]) was 0 (Herbicidal rate of 5% or less (almost no effect)). For the same compound, the “J: blackgrass, herbicidal effect grade” value (blackgrass [10]) was 0 (Herbicidal rate of 5% or less (almost no effect)), the “Herbicidal effect, C: oval-leafed pondweed” value (oval-leafed pondweed [11]) was 4 (Herbicidal rate of 70% or more and less than 90%) and the “N: redroot pigweed, herbicidal effect grade” value (redroot pigweed [12]) was 0 (Herbicidal rate of 5% or less (almost no effect)). The “H: barnyard grass, herbicidal effect grade” value (barnyard grass [13]) was 0 (Herbicidal rate of 5% or less (almost no effect)), the “F: southern crabgrass, herbicidal effect grade” value (southern crabgrass [14]) was 0 (Herbicidal rate of 5% or less (almost no effect)) and the “I: wild oat, herbicidal effect grade” value (wild oat [15]) was 0 (Herbicidal rate of 5% or less (almost no effect)). For the same compound, the “L: windgrass, herbicidal effect grade” value (windgrass [16]) was 0 (Herbicidal rate of 5% or less (almost no effect)), the “Q: false cleavers, herbicidal effect grade” value (false cleavers [17]) was 0 (Herbicidal rate of 5% or less (almost no effect)) and the “N: redroot pigweed, herbicidal effect grade” value (redroot pigweed [18]) was 2 (Herbicidal rate of 20% or more and less than 40%). The “M: velvetleaf, herbicidal effect grade” value (velvetleaf [19]) was 0 (Herbicidal rate of 5% or less (almost no effect)), the “R: persian speedwell, herbicidal effect grade” value (persian speedwell [20]) was 4 (Herbicidal rate of 70% or more and less than 90%) and the “L: windgrass, herbicidal effect grade” value (windgrass [21]) was 0 (Herbicidal rate of 5% or less (almost no effect)). For the same compound, the “P: chickweed, herbicidal effect grade” value (chickweed [22]) was 4 (Herbicidal rate of 70% or more and less than 90%), the “O: lambsquarters, herbicidal effect grade” value (lambsquarters [23]) was 3 (Herbicidal rate of 40% or more and less than 70%) and the “herbicidal effect rating, C: oval-leafed pondweed” value (oval-leafed pondweed [24]) was 3 (Herbicidal rate of 40% or more and less than 70%). The “F: southern crabgrass, herbicidal effect grade” value (southern crabgrass [25]) was 0 (Herbicidal rate of 5% or less (almost no effect)), the “herbicidal effect rating, A: late watergrass” value (late watergrass [26]) was 0 (Herbicidal rate of 5% or less (almost no effect)) and the “Herbicidal effect, B: Japanese bulrush” value (Japanese bulrush [27]) was 3 (Herbicidal rate of 40% or more and less than 70%). For the same compound, the “K: Italian ryegrass, herbicidal effect grade” value (Italian ryegrass [28]) was 0 (Herbicidal rate of 5% or less (almost no effect)), the “O: lambsquarters, herbicidal effect grade” value (lambsquarters [29]) was 2 (Herbicidal rate of 20% or more and less than 40%) and the “R: persian speedwell, herbicidal effect grade” value (persian speedwell [30]) was 4 (Herbicidal rate of 70% or more and less than 90%). For the same compound, the “P: chickweed, herbicidal effect grade” value (chickweed [31]) was 5 (Herbicidal rate of 90% or more (almost completely withered)) and the “I: wild oat, herbicidal effect grade” value (wild oat [32]) was 0 (Herbicidal rate of 5% or less (almost no effect)).

`COc1ccccc1-c1sc2ccc(I)cc2c1-c1c(OC)c(C)nn(C)c1=O` [Compound No. 2-131, 4-(5-iodo-2-(2-methoxyphenyl)benzo[b]thiophen-3-yl)-5-methoxy-2,6-dimethylpyridazin-3(2H)-one] gave a melting point of 161 to 163 °C.

`COc1ccccc1-c1sc2ccc(N)cc2c1-c1c(OC)c(C)nn(C)c1=O` [Compound No. 2-174, 4-(5-amino-2-(2-methoxyphenyl)benzo[b]thiophen-3-yl)-5-methoxy-2,6-dimethylpyridazin-3(2H)-one] showed a melting point of 219 to 221 °C.
